Test systems include KM12 colon; DU-145 prostate; UACC-257 melanoma; RXF 393 renal; U251 CNS; BT-549 breast; SN12C renal; MALME-3M melanoma; NCI-H522 lung; SK-MEL-28 melanoma.
Holding throughout (experiment): growth of human tumour cells (NCI), 48 h

Consider ten molecules from PubChem BioAssay (NCI).

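In this assay, cells in 96-well plates receive the compound at five concentrations for 48 hours. Endpoints are linearly interpolated between the surrounding concentrations. At the GI50, growth is halved. TGI marks complete inhibition of growth.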

`CN(C)NC1=NS(=O)(=O)c2cc3c(cc2S1)N(N(C)C)C(=O)c1cc2c(cc1N(N(C)C)C3=O)SC(NN(C)C)=NS2(=O)=O`: the TGI in the test on KM12 colon, in the test on DU-145 prostate, in the test with UACC-257 melanoma, with RXF 393 renal, in the test with U251 CNS and in the test with BT-549 breast was greater than 10 µM throughout. Moreover, the TGI in the test with SN12C renal, in the test on MALME-3M melanoma, with NCI-H522 lung and in the test with SK-MEL-28 melanoma was greater than 10 µM throughout.
Consider `O=[N+]([O-])c1ccc(-c2nc(N(CCO)CCO)c3ccccc3n2)o1`, for which the GI50 in the test on KM12 colon was 0.216 µM; with DU-145 prostate, 0.0352 µM; in the test with UACC-257 melanoma, 0.189 µM; in the test with RXF 393 renal, 0.159 µM; in the test with U251 CNS, 0.229 µM; with BT-549 breast it was 0.174 µM. Moreover, the GI50 is 0.292 µM with SN12C renal, 0.155 µM with MALME-3M melanoma, 0.0713 µM in the test with NCI-H522 lung and 0.877 µM with SK-MEL-28 melanoma. The TGI in the test on KM12 colon was 0.862 µM; with DU-145 prostate it was 0.303 µM; with UACC-257 melanoma, 0.453 µM; with RXF 393 renal, 0.34 µM; with U251 CNS, 1.34 µM; in the test with BT-549 breast, 0.758 µM. Also, the TGI turned out to be 7.72 µM with SN12C renal, 0.373 µM in the test with MALME-3M melanoma, 0.217 µM in the test on NCI-H522 lung and 2.41 µM in the test on SK-MEL-28 melanoma.
With `Cc1ccccc1C(=O)C#Cc1cn(C2CC(O)C(CO)O2)c(=O)[nH]c1=O` (stereo unspecified), the TGI with KM12 colon, in the test on DU-145 prostate, in the test with UACC-257 melanoma, with RXF 393 renal, in the test on U251 CNS and in the test on BT-549 breast was greater than 100 µM each time. Besides, the TGI in the test with SN12C renal is greater than 100 µM; in the test on MALME-3M melanoma, 35.1 µM; in the test with NCI-H522 lung, 28.7 µM; in the test with SK-MEL-28 melanoma it was greater than 100 µM.
As for `O=C1C(=Cc2ccco2)C(=O)C2CCCCC12` (stereo unspecified), the TGI with KM12 colon, in the test with DU-145 prostate, in the test on UACC-257 melanoma, in the test on RXF 393 renal, with U251 CNS and in the test with BT-549 breast was greater than 100 µM throughout. The TGI with SN12C renal, with MALME-3M melanoma, with NCI-H522 lung and in the test on SK-MEL-28 melanoma was greater than 100 µM in each case.
Regarding `CC1(C)NCCC[C@]2(C)[C@H]3C=CC4=C5C[C@](C)(CO)CC[C@]5(C)CC[C@@]4(C)[C@]3(C)CC[C@@H]12`, the GI50 was 6.09 µM in the test on KM12 colon; 2.25 µM in the test with DU-145 prostate; 5.24 µM in the test on UACC-257 melanoma; 1.84 µM with RXF 393 renal; 4.17 µM in the test on U251 CNS; 3.46 µM in the test on BT-549 breast. Also, the GI50 in the test on SN12C renal was 3.34 µM; in the test on MALME-3M melanoma it was 2.64 µM; in the test with NCI-H522 lung it was 2.38 µM; with SK-MEL-28 melanoma it was 5.87 µM. Moreover, the TGI in the test on KM12 colon came out at 20.3 µM; in the test with DU-145 prostate it was 5.02 µM; in the test with UACC-257 melanoma, 17 µM; with RXF 393 renal it was 4.15 µM; with U251 CNS it was 15.9 µM; with BT-549 breast, 12.7 µM. For the same molecule, the TGI with SN12C renal was determined as 12 µM; in the test on MALME-3M melanoma, 8.01 µM; in the test with NCI-H522 lung, 7.31 µM; with SK-MEL-28 melanoma it was 18.4 µM.
Turning to `Cc1cccc(C)c1NC(=O)/C(Cl)=C(/Cl)C(=O)O`, the TGI in the test with KM12 colon worked out at 23 µM; with DU-145 prostate, 64.8 µM; with UACC-257 melanoma, 29.8 µM; in the test with RXF 393 renal, 33.9 µM; with U251 CNS, 47.5 µM; in the test on BT-549 breast, 31.5 µM. In addition, the TGI in the test on SN12C renal came out at 33.7 µM; in the test with MALME-3M melanoma, 29.7 µM; with NCI-H522 lung it was 8.92 µM; in the test with SK-MEL-28 melanoma, 35.1 µM.
With `COc1cc(Cl)cc(-c2nn(C(=O)NCCN3CCN(C)CC3)cc2-c2ccncc2)c1`, the GI50 with KM12 colon was 20.5 µM; with DU-145 prostate, 12.3 µM; in the test on UACC-257 melanoma, 20.5 µM; with RXF 393 renal, 2.41 µM; in the test with U251 CNS, 15.1 µM; with BT-549 breast it was 3.37 µM. In addition, the GI50 in the test with SN12C renal was 10.6 µM; with MALME-3M melanoma, 9.28 µM; with NCI-H522 lung, 20.3 µM; in the test with SK-MEL-28 melanoma it was 5.31 µM. In addition, the TGI in the test on KM12 colon was 79.6 µM; in the test on DU-145 prostate it was 66.5 µM; with UACC-257 melanoma, greater than 100 µM; in the test with RXF 393 renal, 18.1 µM; in the test with U251 CNS, greater than 100 µM; in the test with BT-549 breast it was 18.6 µM. For the same molecule, the TGI in the test on SN12C renal is greater than 100 µM; in the test on MALME-3M melanoma it was 43.4 µM; in the test with NCI-H522 lung it was 53.6 µM; in the test with SK-MEL-28 melanoma it was 40.6 µM.
As to `CC(=O)C1CC2(c3ccc(C)cc3)C(c3ccc(C)cc3)=C(c3ccc(C)cc3)C1(c1ccc(C)cc1)S2=O` (stereo unspecified), the GI50 in the test on KM12 colon, with DU-145 prostate, with UACC-257 melanoma, in the test on RXF 393 renal, in the test with U251 CNS and with BT-549 breast was greater than 100 µM each time. Further, the GI50 in the test with SN12C renal, in the test on MALME-3M melanoma, in the test with NCI-H522 lung and with SK-MEL-28 melanoma was greater than 100 µM throughout. In addition, the TGI in the test on KM12 colon, with DU-145 prostate, in the test on UACC-257 melanoma, in the test on RXF 393 renal, in the test on U251 CNS and in the test with BT-549 breast was greater than 100 µM in each case. The TGI in the test on SN12C renal, in the test on MALME-3M melanoma, in the test with NCI-H522 lung and in the test on SK-MEL-28 melanoma was greater than 100 µM each time.
With `[N-]=[N+]=C(C(=O)OCC#CCOC(=O)C(=[N+]=[N-])S(=O)(=O)c1ccccc1)S(=O)(=O)c1ccccc1`, the TGI in the test on KM12 colon, with DU-145 prostate, with UACC-257 melanoma, with RXF 393 renal, in the test on U251 CNS and with BT-549 breast was greater than 10 µM throughout. Also, the TGI in the test on SN12C renal, with MALME-3M melanoma, in the test on NCI-H522 lung and with SK-MEL-28 melanoma was greater than 10 µM each time.
With `Cc1ccccc1CN1CC2=C(CCN(Cc3ccccc3)C2=O)N2CCN=C12`, the TGI in the test on KM12 colon, in the test on DU-145 prostate, in the test with UACC-257 melanoma, in the test with RXF 393 renal, in the test on U251 CNS and in the test on BT-549 breast was greater than 100 µM in each case. Also, the TGI with SN12C renal, in the test with MALME-3M melanoma, with NCI-H522 lung and in the test with SK-MEL-28 melanoma was greater than 100 µM each time. Also, the GI50 in the test with MALME-3M melanoma is 9.84 µM.
